Patent US6624156B2, “Methods of making and method of using hybrid cholinergic agents and compositions” (Board of Trustees of the University of Arkansas, priority 2001, dated 2003)

Columns and labels:
M3 muscarinic receptor [1] = target: T1, M3 muscarinic receptor (Rattus norvegicus, UniProt P08483); experiment: Acetylcholine-induced inositol phosphate (IP) formation in CHO-M3 cells; format: cell-based
T1 construct: host or cells: CHO cells
Method: Post-receptor (downstream) actions of LCC were determined by measuring increases in inositol phosphates (IP) after incubating cells with 3H-myo-inositol. CHO cell inositol 1,4,5-triphosphate (IP3) was determined by the methods of Hu and El-Fakahany (1990, Mol. Pharmacol. 38:895-903) and Labarca et al., (1987, Methods Enzymol. 141:192-201). 5×10^4 cells/well were incubated with 1.0 μCi/ml myo-[2-^3H]inositol for 24 hour at 37° C., treated with 20 mM LiCl for 30 minutes at 37° C. Cells were then incubated with the test agents for 30 minutes at 37° C. The IP3 fraction was separated by ion-exchange chromatography (AG2 X8 resin), and the dpm in this fraction were determined by liquid scintillation.
The highest LCC concentration tested (0.1 mM) reduced ACh-induced IP production by 80%, thereby confirming competition of LCC and ACh for the same receptor, indicating interaction of LCC and ACh with the same receptor. Thus, LCC is an M3 muscarinic receptor antagonist.

M3 muscarinic receptor [2] = target: T1, M3 muscarinic receptor; experiment: Inhibition of 3H-N-methylscopolamine binding to CHO cells expressing M3 muscarinic receptors; conditions: for IC50: read-out: IC50 (inhibition of 3H-NMS binding), CHO cells expressing M3, 0.6 nM 3H-NMS, 45 min 37° C., mean±SE of at least three assays
Method: The objective of this experiment was to evaluate whether LCC interacted with muscarinic M3 receptors. CHO cells expressing M3 muscarinic receptors were obtained from the American Type Culture Collection (ATCC), MD. The interaction of LCC with the M3 receptors was determined by an assay which measures inhibition of ^3H-N-methylscopolamine (^3H-NMS) binding to the M3 receptor. […] Lithocholyltaurine and lithocholylglycine are physiological conjugates of lithocholic acid.
5×10^5 CHO cells (0.5 ml) were incubated for 45 minutes at 37° C. with 0.6 nM ^3H-NMS alone or with unlabeled ligand. Nonspecific binding was determined in the presence of 10.0 μM unlabeled NMS. The reaction was terminated by centrifuging 0.5 ml of cell suspension at 10,000 g for 7 minutes at room temperature. 100 μl of supernatant was sampled for determination of free ligand concentration, and the remaining liquid was carefully decanted. The cell pellet was washed, drained, and dissolved in 100 μl Soluene 350.

T1 sequence (P08483 whole entry): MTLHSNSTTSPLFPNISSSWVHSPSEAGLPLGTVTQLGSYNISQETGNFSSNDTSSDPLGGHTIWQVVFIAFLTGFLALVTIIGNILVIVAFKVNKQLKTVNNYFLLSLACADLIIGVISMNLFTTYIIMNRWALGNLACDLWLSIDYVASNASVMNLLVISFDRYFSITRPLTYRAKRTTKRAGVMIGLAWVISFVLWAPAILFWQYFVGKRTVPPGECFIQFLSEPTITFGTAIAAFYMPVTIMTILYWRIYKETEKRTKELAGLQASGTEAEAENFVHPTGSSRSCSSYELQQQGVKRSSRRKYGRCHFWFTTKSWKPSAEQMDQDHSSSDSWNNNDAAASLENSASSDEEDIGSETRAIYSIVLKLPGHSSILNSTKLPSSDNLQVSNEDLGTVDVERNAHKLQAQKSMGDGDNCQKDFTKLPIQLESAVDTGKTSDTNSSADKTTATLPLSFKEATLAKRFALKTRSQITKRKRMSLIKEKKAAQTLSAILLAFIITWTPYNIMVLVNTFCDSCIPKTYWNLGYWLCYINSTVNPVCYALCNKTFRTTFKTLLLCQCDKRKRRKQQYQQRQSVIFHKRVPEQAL

inhibition of ACh-induced IP formation compared with equal concentrations of LCT (M3 muscarinic receptor [1]; 10.0 μM acetylcholine) | reduction of ACh-induced IP production (M3 muscarinic receptor [1]; 0.1 mM LCC, 10.0 μM acetylcholine) [%] | effect of agent alone on IP formation (M3 muscarinic receptor [1]; LCC alone) | potency relative to acetylcholine at inhibiting 3H-NMS binding (M3 muscarinic receptor [2]; LCC vs acetylcholine) | potency relative to carbachol at inhibiting 3H-NMS binding (M3 muscarinic receptor [2]; LCC vs carbachol) | IC50 (M3 muscarinic receptor [2]) [µM] | SMILES
overall greater extent | 80 | not alter IP formation | about 2 times | about 60 times | 6.4 ± 0.8 | C[C@H](CCC(=O)OCC[N+](C)(C)C)[C@H]1CC[C@H]2[C@@H]3CC[C@@H]4C[C@H](O)CC[C@]4(C)[C@H]3CC[C@]12C [LCC, lithocholylcholine]
– | – | – | – | – | 228 ± 41.2 | C[C@H](CCC(=O)NCC(=O)O)[C@H]1CC[C@H]2[C@@H]3CC[C@@H]4C[C@H](O)CC[C@]4(C)[C@H]3CC[C@]12C [Lithocholylglycine, reference compound]
– | – | – | – | – | 165 ± 38.5 | C[C@H](CCC(=O)NCCS(=O)(=O)O)[C@H]1CC[C@H]2[C@@H]3CC[C@@H]4C[C@H](O)CC[C@]4(C)[C@H]3CC[C@]12C [Lithocholyltaurine, lithocholyltaurine, reference compound]
